Measured values taken from patent US8097722B2 (priority 2008, dated 2012).
Like-named read-outs stand apart in the source and are kept apart here. Peptide text beside a SMILES is read from it. * marks the point of attachment. MeOSuc = COC(=O)CCC(=O)*; CH2Cl = ClC*

Assays:
Purified PMPMEase = biological target: T1, Purified PMPMEase (Sus scrofa, UniProt Q29550); format: biochemical, porcine
T1 construct: from tissue; host or cells: porcine liver supernatant, purified by column chromatography
T1 sequence (Q29550 19-566): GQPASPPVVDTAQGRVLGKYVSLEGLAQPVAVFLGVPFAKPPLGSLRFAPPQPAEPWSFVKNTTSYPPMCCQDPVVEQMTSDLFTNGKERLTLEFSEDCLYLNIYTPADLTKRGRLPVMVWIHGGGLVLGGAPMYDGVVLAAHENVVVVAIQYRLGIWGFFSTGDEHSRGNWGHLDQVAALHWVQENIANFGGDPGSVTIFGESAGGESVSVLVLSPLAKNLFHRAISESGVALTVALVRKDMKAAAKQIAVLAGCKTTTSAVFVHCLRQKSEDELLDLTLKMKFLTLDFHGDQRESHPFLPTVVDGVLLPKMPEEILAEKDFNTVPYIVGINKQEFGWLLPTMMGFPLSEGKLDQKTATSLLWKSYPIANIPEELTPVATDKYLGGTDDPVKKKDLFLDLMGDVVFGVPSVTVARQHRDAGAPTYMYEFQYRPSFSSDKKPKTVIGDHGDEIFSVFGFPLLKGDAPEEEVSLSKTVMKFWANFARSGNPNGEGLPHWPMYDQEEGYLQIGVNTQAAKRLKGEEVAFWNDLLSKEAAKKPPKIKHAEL

[1] = Aqueous solubility (statement); format: physicochemical
porcine liver PMPMEase = biological target: T2, porcine liver PMPMEase (Sus scrofa, UniProt Q29550); test: PMPMEase inhibition assay of PMSF, GESF and FESF (IC50); format: biochemical; conditions: for increase in potency relative to PMSF: ratio of IC50 values vs PMSF
T2 construct: the supernatant fraction was prepared from 100 g of porcine liver; from tissue; host or cells: porcine liver 40,000×g supernatant
T2 sequence (Q29550 19-566): T1 sequence (Q29550 19-566)

brain PMPMEase = format: biochemical, porcine
liver PMPMEase = format: biochemical, porcine
[2] = 0.01 mM compound, 20 min preincubation at 37° C., HCFCM 1 mM
[3] = 1 mM compound, 20 min preincubation at 37° C., HCFCM 1 mM

Molecule	Residual activity (% of Control, SEM, n = 3) 0.01 mM (Purified PMPMEase)	Residual activity (% of Control, SEM, n = 3) 1 mM (Purified PMPMEase)	Brain Mean (mean percent inhibition relative to the controls) (brain PMPMEase)	Liver Mean (mean percent inhibition relative to the controls) (liver PMPMEase)	also measured
COC(=O)NS(=O)(=O)c1ccc(N)cc1 [Asulam]	113 ± 6.3 % of Control	91.7 ± 6.9 % of Control			
O=C(C(=O)c1ccccc1)c1ccccc1 [Benzil]		38.0 ± .43 % of Control			Residual activity (% of Control, SEM, n = 3) 0.1 mM (Purified PMPMEase): *69.4 ± 0.24 % of Control
NC(=O)OCc1ccccc1 [Benzyl carbamate]	117 ± 11 % of Control	124 ± 5 % of Control			
CCC(C)C(O)C(C)C(=O)C(C)/C=C(\C)CC(C)C1OC(=O)C1C (centres unmarked) [Ebelactone A]	123 ± 7 % of Control	18.3 ± 0.3 % of Control			
CCC(C)C(O)C(C)C(=O)C(C)/C=C(\C)CC(C)C1OC(=O)C1CC (centres unmarked) [Ebelactone B]	56.4 ± 1.0 % of Control	0 ± 0 % of Control			
CC(C)=CCC/C(C)=C/CC/C(C)=C/CSCCS(=O)(=O)F [FESF, S-trans,trans-farnesyl-2-thioethanesulfonyl fluoride]					aqueous solubility [1]: not aqueous-soluble; IC50 (porcine liver PMPMEase): 37 ± 0.42 nM; increase in potency relative to PMSF (porcine liver PMPMEase): > 440 fold
CC(C)=CCC/C(C)=C/CSCCS(=O)(=O)F [GESF, S-trans-geranyl-2-thioethanesulfonyl fluoride]					aqueous solubility [1]: not aqueous-soluble; IC50 (porcine liver PMPMEase): 169 ± 6.8 nM; increase in potency relative to PMSF (porcine liver PMPMEase): over 97 fold
CC(C)=CCC/C(C)=C/CC/C(C)=C/CC/C(C)=C/CS(=O)(=O)F [GGESF, S-geranylgeranyl sulfonyl fluoride]					higher potency than FESF (concluded from the data, not tested) (porcine liver PMPMEase; predicted vs FESF): 2 fold
CC(C)CC(N)C(=O)CCl [L-Leu chloromethyl ketone (CMK)]	93.3 ± 1.0 % of Control	60.4 ± 1.9 % of Control			
COC(=O)CCC(=O)N[C@@H](C)C(=O)N[C@@H](C)C(=O)N1CCC[C@H]1C(=O)N[C@H](C(=O)CCl)C(C)C [N- (methoxysuccinyl)-L- Ala-L-Ala-L-Pro-L- Val CMK] (MeOSuc-AAPV-CH2Cl)					Residual activity (% of Control, SEM, n = 3) 0.01 mM (Purified PMPMEase; [2]): 105 ± 3.1 % of Control; Residual activity (% of Control, SEM, n = 3) 1 mM (Purified PMPMEase; [3]): 61.8 ± 2.0 % of Control
O=C(N[C@@H](Cc1ccccc1)C(=O)CCl)OCc1ccccc1 [N-carbobenzyloxy-L- Phe CMK]	94.8 ± 1.3 % of Control	57.0 ± 2.0 % of Control			
Cc1ccc(S(=O)(=O)N[C@@H](CCCCN)C(=O)CCl)cc1 [Nα-tosyl-L-Lys CMK]	98.3 ± 1.9 % of Control	98.6 ± 7.3 % of Control			
CCOP(=O)(OCC)Oc1ccc([N+](=O)[O-])cc1 [Paraoxon]			87%	100%	Residual activity (% of Control, SEM, n = 3) 0.01 mM (Purified PMPMEase; [2]): 0 ± 0 % of Control; Residual activity (% of Control, SEM, n = 3) 1 mM (Purified PMPMEase; [3]): 0 ± 0 % of Control
O=S(=O)(F)Cc1ccccc1 [Phenylmethylsulfonyl fluoride, phenylmethylsulfonyl fluoride]					Residual activity (% of Control, SEM, n = 3) 0.01 mM (Purified PMPMEase; [2]): 79.5 ± 1.8 % of Control; Residual activity (% of Control, SEM, n = 3) 1 mM (Purified PMPMEase; [3]): 0 ± 0 % of Control
COP(=O)(OC)O/C(=C/Cl)c1cc(Cl)c(Cl)cc1Cl [Tetrachlorvinphos]			100%	91%	
CCCSP(=S)(OCC)Oc1ccc(Cl)cc1Cl (centres unmarked) [Tokuthion]			100%	76%	
Acephate			50%	NO INHIBITION	
Edifenphos			81%	97%	
Heptenophos			71%	96%	
Monocrotophos			30%	18%	
Prothiofos			6%	52%	
Trichlorfon			100%	91%	
